Test: log P by HPLC on a reversed-phase column (C18), EEC Directive 79/831 Annex V.A8
Type: physicochemical
Conditions: HCOOH
Method: The stated log P values were determined in accordance with EEC Directive 79/831 Annex V.A8 by HPLC (High Performance Liquid Chromatography) using a reversed-phase column (C18).

Row | SMILES | log P (HCOOH)
1 | COC(=O)CC(NC(=O)c1ccc(-n2nc(C(F)(F)F)c(-c3cc(Cl)cc(Cl)c3)c2N)cc1C)c1ccccn1 (stereo not shown) [I-A-Q2-057] | I-A-Q2-057: log P (HCOOH): 2.72
2 | Cc1cc(-n2nc(C(F)(F)F)c(-c3cc(Cl)cc(Cl)c3)c2N)ccc1C(=O)NC1(c2ccccn2)CC1 [I-A-Q2-244] | I-A-Q2-244: log P (HCOOH): 3.68
3 | Cc1cc(-n2nc(C(F)(F)F)c(I)c2N)ccc1C(=O)O [XI-A-087] | XI-A-087: log P (HCOOH): 2.58
4 | Cc1cc(-n2nc(C(F)(F)F)c(-c3cc(Cl)cc(Cl)c3)c2N)ccc1C(=O)NCc1cn(C)cn1 [I-A-Q2-058] | I-A-Q2-058: log P (HCOOH): 1.94
5 | Cc1cc(-n2nc(C)c(-c3ccc(Cl)cc3)c2N)ccc1C(=O)NCC(F)(F)C(F)F [I-A-Q2-330] | I-A-Q2-330: log P (HCOOH): 3.12
6 | Cc1cc(-n2nc(C(F)(F)F)c(-c3ccc(Br)cc3)c2N)ccc1C(=O)NCc1ccccn1 [I-A-Q2-346] | I-A-Q2-346: log P (HCOOH): 2.80
7 | Cc1cc(-n2nc(C(F)F)c(-c3ccc(F)cc3F)c2N)ccc1C(=O)NCC(F)(F)C(F)F [I-A-Q2-319] | I-A-Q2-319: log P (HCOOH): 2.80
8 | Nc1c(-c2cc(Cl)cc(Cl)c2)c(C(F)(F)F)nn1-c1ccc(C(=O)NCc2cccnc2)cc1 [I-A-Q2-143] | I-A-Q2-143: log P (HCOOH): 2.59
9 | Cc1cc(-n2nc(C(F)(F)F)c(-c3cc(F)c(F)c(F)c3)c2N)ccc1C(=O)NCC(F)(F)C(F)F [I-A-Q2-316] | I-A-Q2-316: log P (HCOOH): 3.65
10 | CC(NC(=O)c1ccc(-n2nc(C(F)(F)F)c(-c3cc(Cl)cc(Cl)c3)c2N)nc1)c1ccccc1 (stereo not shown) [I-A-Q2-103] | I-A-Q2-103: log P (HCOOH): 5.19
11 | Cc1cc(-n2nc(C(F)(F)F)c(-c3cc(Cl)cc(Cl)c3)c2N)ccc1C(=O)NC1COC1 [I-A-Q2-044] | I-A-Q2-044: log P (HCOOH): 3.42
12 | CC(C)NC(=O)c1ccc(-n2nc(C(F)(F)F)c(-c3ccc(Br)cc3)c2N)cc1 [I-A-Q2-187] | I-A-Q2-187: log P (HCOOH): 3.42
13 | Cc1cc(-n2nc(C(F)(F)F)c(-c3cc(Cl)cc(Cl)c3)c2N)ccc1C(=O)NCC(F)(F)Br [I-A-Q2-268] | I-A-Q2-268: log P (HCOOH): 4.45
14 | Cc1cc(-n2nc(C(F)(F)F)c(Cl)c2N)ccc1C(=O)O [XI-A-085] | XI-A-085: log P (HCOOH): 1.95
15 | Cc1cc(-n2nc(C(F)(F)F)c(-c3ccc(Cl)c(Cl)c3)c2N)ccc1C(=O)NCC(F)(F)C(F)F [I-A-Q2-304] | I-A-Q2-304: log P (HCOOH): 4.00
16 | Cc1cc(-n2nc(C(F)(F)F)c(-c3cc(Cl)cc(Cl)c3)c2N)ccc1C(=O)NCc1cc(C(F)(F)F)c(Cl)cn1 [I-A-Q2-207] | I-A-Q2-207: log P (HCOOH): 4.83
17 | Cc1cc(-n2nc(C(F)(F)F)c(-c3ccc(Cl)c(F)c3)c2N)ccc1C(=O)NCc1ccccn1 [I-A-Q2-353] | I-A-Q2-353: log P (HCOOH): 2.84
18 | Cc1cc(-n2nc(C(F)(F)F)c(-c3ccc(F)c(F)c3)c2N)ccc1C(=O)NCc1ccccn1 [I-A-Q2-355] | I-A-Q2-355: log P (HCOOH): 2.50
19 | Cc1cc(-n2nc(C(F)(F)F)c(-c3ccc(C#N)cc3)c2N)ccc1C(=O)NCc1ccccn1 [I-A-Q2-349] | I-A-Q2-349: log P (HCOOH): 2.04
20 | Nc1c(-c2cc(Cl)cc(Cl)c2)c(C(F)(F)F)nn1-c1ccc(C(=O)NC2CC2)cc1 [I-A-Q2-136] | I-A-Q2-136: log P (HCOOH): 3.80

Row | SMILES | log P (HCOOH)
21 | Cc1cc(-n2nc(C(F)(F)F)c(I)c2N)ccc1C(=O)NCc1ccccn1 [XI-A-095] | XI-A-095: log P (HCOOH): 2.03
22 | Cc1cc(-n2nc(C(F)(F)F)cc2N)ccc1C(=O)NCC(F)(F)C(F)F [XI-A-088] | XI-A-088: log P (HCOOH): 2.63
23 | Cc1cc(-n2nc(C(F)(F)F)c(-c3cc(Cl)cc(Cl)c3)c2N)ccc1C(=O)NC(c1ccccc1)C(F)(F)F (stereo not shown) [I-A-Q2-241] | I-A-Q2-241: log P (HCOOH): 4.89
24 | COC(=O)c1ccc(-n2nc(C(F)(F)F)c(I)c2N)cc1C [XI-A-083] | XI-A-083: log P (HCOOH): 3.48
25 | Cc1cc(-n2nc(C(F)(F)F)c(-c3cc(Cl)cc(Cl)c3)c2N)ccc1C(=O)NCc1ncc[nH]1 [I-A-Q2-034] | I-A-Q2-034: log P (HCOOH): 1.94
26 | Nc1c(-c2cccc(Cl)c2)c(C(F)(F)F)nn1-c1ccc(C(=O)NCC(F)(F)F)cc1 [I-A-Q2-085] | I-A-Q2-085: log P (HCOOH): 3.47
27 | Cc1cc(-n2nc(C(F)(F)F)c(-c3cc(Cl)cc(Cl)c3)c2I)ccc1C(=O)NCc1ncccn1 [I-A-Q2-275] | I-A-Q2-275: log P (HCOOH): 4.47
28 | CCc1nn(-c2ccc(C(=O)NCc3ccccn3)c(C)c2)c(N)c1-c1ccc(Cl)cc1 [I-A-Q2-379] | I-A-Q2-379: log P (HCOOH): 2.20
29 | Cc1cc(-n2nc(C(F)(F)F)c(-c3cccc(F)c3)c2N)ccc1C(=O)NCC(F)(F)C(F)F [I-A-Q2-311] | I-A-Q2-311: log P (HCOOH): 3.27
30 | Nc1c(-c2cc(Cl)cc(Cl)c2)c(C(F)(F)F)nn1-c1ccc(C(=O)NCC(F)(F)C(F)F)c(Cl)c1 [I-A-Q2-384] | I-A-Q2-384: log P (HCOOH): 4.53
31 | Nc1c(-c2cc(Cl)cc(Cl)c2)c(C(F)(F)F)nn1-c1ccc(C(=O)NCc2ccccn2)cc1 [I-A-Q2-134] | I-A-Q2-134: log P (HCOOH): 3.11
32 | Cc1cc(-n2nc(C(F)(F)F)c(-c3cc(Cl)cc(Cl)c3)c2N)ccc1C(=O)NC(C)C1(Cl)CC1 (stereo not shown) [I-A-Q2-261] | I-A-Q2-261: log P (HCOOH): 4.76
33 | Nc1c(-c2ccc(Cl)cc2)c(C(F)(F)F)nn1-c1ccc(C(=O)NCC(F)(F)F)cc1 [I-A-Q2-162] | I-A-Q2-162: log P (HCOOH): 3.51
34 | Cc1cc(-n2nc(C(F)(F)F)c(-c3cc(Cl)cc(Cl)c3)c2[S+](C)[O-])ccc1C(=O)NCc1ccccn1 (stereo not shown) [I-A-Q2-063, 4-[4-(3,5-Dichlorophenyl)-5-methanesulphinyl-3-trifluoromethylpyrazol-1-yl]-2-methyl-N-pyridin-2-ylmethylbenzamide] | I-A-Q2-063: log P (HCOOH): 3.11
35 | Cc1cc(-n2nc(C(F)F)c(-c3ccc(Cl)cc3)c2N)ccc1C(=O)NCC(F)(F)C(F)F [I-A-Q2-320] | I-A-Q2-320: log P (HCOOH): 3.23
36 | Nc1c(-c2ccc(Br)cc2)c(C(F)(F)F)nn1-c1ccc(C(=O)NCc2ccccn2)cc1 [I-A-Q2-191] | I-A-Q2-191: log P (HCOOH): 2.57
37 | Cc1cc(-n2nc(C(F)(F)F)c(-c3cc(F)cc(F)c3)c2N)ccc1C(=O)NCC(F)(F)C(F)F [I-A-Q2-315] | I-A-Q2-315: log P (HCOOH): 3.37
38 | Cc1cc(-n2nc(C)c(-c3cc(Cl)ccc3Cl)c2N)ccc1C(=O)NCc1ccccn1 [I-A-Q2-375] | I-A-Q2-375: log P (HCOOH): 2.04
39 | Cc1cc(-n2nc(C(F)(F)F)c(-c3cc(Cl)cc(Cl)c3)c2N)ccc1C(=O)NCCO [I-A-Q2-272] | I-A-Q2-272: log P (HCOOH): 3.24

Same assay, conditions: HCOOH; Table 4, compounds of formula I-A-Q4

Row | SMILES | log P (HCOOH)
40 | Nc1c(-c2ccc(Cl)c(Cl)c2)c(C(F)(F)F)nn1-c1ccc(C(=O)O)cc1 [I-A-Q4-089] | I-A-Q4-089: log P (HCOOH): 3.69
41 | Cc1nn(-c2ccc(Cl)cn2)c(N)c1-c1ccc(Cl)cc1Cl [I-A-Q4-021] | I-A-Q4-021: log P (HCOOH): 4.70
42 | Cc1nn(-c2ccc(Cl)cn2)c(N)c1-c1ccc(F)cc1Cl [I-A-Q4-037] | I-A-Q4-037: log P (HCOOH): 4.05
43 | Nc1c(-c2cc(Cl)cc(Cl)c2)c(C(F)(F)F)nn1-c1ccc(F)c(F)c1 [I-A-Q4-109] | I-A-Q4-109: log P (HCOOH): 4.77
44 | Nc1c(-c2ccc(Cl)c(F)c2)c(C(F)(F)F)nn1-c1ccc(Cl)cn1 [I-A-Q4-048] | I-A-Q4-048: log P (HCOOH): 5.02
45 | Cc1cc(C)cc(-c2c(C(F)(F)F)nn(-c3ccc(Cl)cn3)c2N)c1 [I-A-Q4-022] | I-A-Q4-022: log P (HCOOH): 5.22
46 | COc1ccc(-c2c(C)nn(-c3ccc(Cl)cn3)c2N)cc1 [I-A-Q4-061] | I-A-Q4-061: log P (HCOOH): 3.58
47 | Cc1ccccc1-c1c(C(F)(F)F)nn(-c2ccc(Cl)cn2)c1N [I-A-Q4-054] | I-A-Q4-054: log P (HCOOH): 4.64
48 | Nc1c(-c2cc(Cl)cc(Cl)c2)c(C(F)(F)F)nn1-c1ccc(C(=O)O)cn1 [I-A-Q4-064] | I-A-Q4-064: log P (HCOOH): 4.23

Same assay, conditions: HCOOH; compounds of the formula (IX), Table 11

Row | SMILES | log P (HCOOH)
49 | Nc1[nH]nc(C(F)(F)F)c1-c1ccc(Cl)c(Cl)c1 [IX-38] | IX-38: log P (HCOOH): 2.80
50 | Nc1[nH]nc(C(F)(F)F)c1-c1cc(Cl)cc(Cl)c1 [IX-021] | IX-021: log P (HCOOH): 2.91

Same assay, conditions: HPLC, reversed-phase C18, mobile phase with formic acid

Row | SMILES | log P (HCOOH)
51 | N#Cc1cc(-n2nc(C(F)(F)Oc3cccc(Cl)c3)c(-c3cc(Cl)cc(C(F)(F)F)c3)c2N)ccc1-n1cncn1 [I-A-Q1-072] | I-A-Q1-072: log P (HCOOH): 4.82
52 | N#Cc1cc(-n2nc(C(F)(F)F)c(-c3cc(Cl)cc(Cl)c3)c2N)ccc1-n1cc(Br)cn1 [I-A-Q1-078] | I-A-Q1-078: log P (HCOOH): 4.83
53 | N#Cc1cc(-n2nc(C(F)(F)F)c(-c3ccccc3Cl)c2N)ccc1-n1cncn1 [I-A-Q1-035] | I-A-Q1-035: log P (HCOOH): 2.80
54 | N#Cc1cc(-n2nc(C(F)(F)F)c(-c3cc(Cl)cc(Cl)c3)c2N)ccc1-n1cccn1 [I-A-Q1-082] | I-A-Q1-082: log P (HCOOH): 4.34
55 | COc1ccc(-c2c(C)nn(-c3ccc(-n4cncn4)c(C#N)c3)c2N)cc1 [I-A-Q1-058] | I-A-Q1-058: log P (HCOOH): 2.11
56 | N#Cc1cc(-n2nc(C(F)(F)F)c(-c3cc(Cl)cc(Cl)c3)c2N)ccc1-n1cc(Cl)cn1 [I-A-Q1-084] | I-A-Q1-084: log P (HCOOH): 4.70
57 | Nc1c(-c2cc(Cl)cc(Cl)c2)c(C(F)(F)F)nn1-c1ccc(CNC(=O)C2CC2)c(Cl)c1 [I-A-Q3-022] | I-A-Q3-022: log P (HCOOH): 4.12
58 | Cc1nn(-c2ccc(-n3cncn3)c(C#N)c2)c(N)c1-c1c(F)cccc1Cl [I-A-Q1-051] | I-A-Q1-051: log P (HCOOH): 2.27

Same assay, conditions: HPLC, reversed-phase C18, mobile phase with formic acid; read-out: log P (HCOOH)

Row | SMILES | chromatographic logP
59 | COC(=O)c1ccc(NN)cc1C [VII-A-008, Methyl 4-hydrazino-2-methylbenzoate] | 0.4
60 | Cc1cc(-n2nc(C(F)(F)F)c(-c3cc(Cl)cc(Cl)c3)c2N)ccc1C(=O)O [I-A-Q4-010, 4-[5-Amino-4-(3,5-dichlorophenyl)-3-trifluoromethylpyrazol-1-yl]-2-methylbenzoic acid] | 4.04
61 | Cc1cc(-n2nc(C(F)(F)F)c(-c3cc(Cl)cc(Cl)c3)c2[S+](C)[O-])ccc1C(=O)NCc1ccccn1 (stereo not shown) [I-A-Q2-063, 4-[4-(3,5-Dichlorophenyl)-5-methanesulphinyl-3-trifluoromethylpyrazol-1-yl]-2-methyl-N-pyridin-2-ylmethylbenzamide] | 3.11

Reference: patent US20110190365A1, “Insecticidal 4-phenyl-1H-pyrazoles” (Bayer Crop Science AG, priority 2008, published 2011)
